Consider three molecules from patent publication US20080227764A1 (published 2008).

The test system of series [1] is diabetic neuropathic rats. Briefly: Streptozotocin diabetic neuropathic pain model (Example 1): noxious electrical current, tail flick latency, paw pressure. The series is classed as in vivo, rat. Background: Thermal pain tests record how soon the animal reacts.
The subject of series [2] is diabetic neuropathic male Wistar rats. The series can be described thus: Paw pressure (Randall Selitto) anti-nociception in rats with diabetic neuropathy (Example 2). The series is classed as in vivo, rat.
The subject of series [3] is Male Wistar rats. The series can be described thus: Sedation: resting time in open field activity monitor. It is filed as in vivo, rat.
Series [4] deals with rats with experimental insulin-dependent diabetes mellitus. As to conditions: intravenous morphine; diabetic rats; cited from earlier work.

In the case of `CC(=O)OCC(=O)[C@H]1CC[C@H]2[C@@H]3CC[C@H]4C[C@H](O)CC[C@]4(C)[C@H]3C(=O)C[C@]12C` [alphadolone acetate, 21-acetoxy-3α-hydroxy-5α-pregnane-11,20-dione], in series [1] (alphadolone acetate 6 mg/kg ip given alone), the “anti-nociceptive action in diabetic neuropathic pain (ECT, TFL, paw pressure)” value is reported as “minimally responsive”. Further, the “anti-nociception to paw pressure” value in series [2] (alphadolone acetate 1.0 mg/kg given alone) is “ineffective”. In series [2] (alphadolone acetate 10 mg/kg intraperitoneally (maximum dose), given alone), the “reversal of the allodynia and hyperalgesia to paw pressure” value was determined as 80%. In series [2] (alphadolone acetate given alone intraperitoneally, FIG. 9), the “anti-nociceptive effects, dose response” value is “dose related anti-nociceptive effects”. Moreover, the “potency in rats with diabetic neuropathy compared with normal weight matched rats” value in series [2] (alphadolone acetate given alone, the two dose response curves overlay each other) was “same potency”. Moreover, the “resting times compared with saline controls” value in series [3] (alphadolone acetate 60 mg/kg intraperitoneally) is “decreased resting times”; in series [3] (alphadolone acetate doses less than 100 mg/kg intraperitoneally, 30 minutes), “did not increase resting times”.

On to `CN1CC[C@]23c4c5ccc(O)c4O[C@H]2[C@@H](O)C=C[C@H]3[C@H]1C5` [morphine], for which the “doses inducing dose-dependent anti-nociceptive effect relative to normal rats” value in series [4] was “twice as high”.

As for `COc1ccc2c3c1O[C@H]1C(=O)CC[C@@]4(O)[C@@H](C2)N(C)CC[C@]314` [oxycodone, reference compound], the “anti-nociceptive action in diabetic neuropathic pain (ECT, TFL, paw pressure)” value in series [1] (oxycodone 250 μg/kg given alone) is “minimally responsive”. For the same molecule, the “resting times compared with saline controls” value is “decreased resting times” in series [3] (oxycodone 0.25 and 0.125 mg/kg intraperitoneally); “did not increase resting times” in series [3] (oxycodone doses less than 1.0 mg/kg intraperitoneally, 30 minutes).
